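1) Cells in 96-well plates. 2) Compound, 48 h, 5 concentrations. 3) Linear interpolation between surrounding doses. 4) Unreached endpoint = highest concentration. TGI: total growth inhibition.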
Tests used:
Assay in all cases: DTP human tumour cell line panel, 48 h
PC-3 prostate = system: PC-3 prostate
SK-MEL-28 melanoma = system: SK-MEL-28 melanoma
ACHN renal = system: ACHN renal
SW-620 colon = system: SW-620 colon
HT29 colon = system: HT29 colon
NCI-H226 lung = system: NCI-H226 lung
TK-10 renal = system: TK-10 renal
A549 NSCLC = system: A549 NSCLC
MCF7 breast = system: MCF7 breast
HCT-15 colon = system: HCT-15 colon
OVCAR-8 ovarian = system: OVCAR-8 ovarian

SMILES: CCN(CC)CCNC(=O)c1cc2cc(NC(=O)c3cc4cc([N+](=O)[O-])ccc4[nH]3)ccc2[nH]1
- TGI (PC-3 prostate): > 100 µM
- TGI (SK-MEL-28 melanoma): 66.8 µM
- TGI (ACHN renal): > 100 µM
- TGI (SW-620 colon): > 58 µM
- TGI (HT29 colon): > 100 µM
- TGI (NCI-H226 lung): > 87.3 µM
- TGI (TK-10 renal): 48.6 µM
- TGI (A549 NSCLC): > 100 µM
- TGI (MCF7 breast): > 100 µM
- TGI (HCT-15 colon): > 100 µM
- TGI (OVCAR-8 ovarian): > 100 µM

SMILES: Cn1c(=O)c2c(nc3n2CC(C(=O)O)N3)n(C)c1=O (stereo not drawn)
- TGI (PC-3 prostate): > 100 µM
- TGI (SK-MEL-28 melanoma): > 100 µM
- TGI (ACHN renal): > 100 µM
- TGI (SW-620 colon): > 100 µM
- TGI (HT29 colon): > 100 µM
- TGI (NCI-H226 lung): > 100 µM
- TGI (TK-10 renal): > 100 µM
- TGI (A549 NSCLC): > 100 µM
- TGI (MCF7 breast): > 100 µM
- TGI (HCT-15 colon): > 100 µM
- TGI (OVCAR-8 ovarian): > 100 µM

SMILES: Nc1c(-c2ccc(Cl)c(Cl)c2)c2ccc([N+](=O)[O-])cc2c(=O)n1-c1nc2ccccc2s1
- TGI (PC-3 prostate): > 100 µM
- TGI (SK-MEL-28 melanoma): > 100 µM
- TGI (ACHN renal): 20.6 µM
- TGI (SW-620 colon): > 100 µM
- TGI (HT29 colon): > 34.2 µM
- TGI (NCI-H226 lung): 50.3 µM
- TGI (TK-10 renal): 30.5 µM
- TGI (A549 NSCLC): > 43.8 µM
- TGI (MCF7 breast): 21.1 µM
- TGI (HCT-15 colon): > 47 µM
- TGI (OVCAR-8 ovarian): 17.9 µM

SMILES: CCOP(=O)(OCC)C(F)(F)c1ccc(CC(NC(=O)OC(C)(C)C)C(=O)O)cc1 (stereo not drawn)
- TGI (PC-3 prostate): > 10 µM
- TGI (SK-MEL-28 melanoma): > 10 µM
- TGI (ACHN renal): > 10 µM
- TGI (SW-620 colon): > 10 µM
- TGI (HT29 colon): > 10 µM
- TGI (NCI-H226 lung): > 10 µM
- TGI (TK-10 renal): > 10 µM
- TGI (A549 NSCLC): > 10 µM
- TGI (MCF7 breast): > 10 µM
- TGI (HCT-15 colon): > 10 µM
- TGI (OVCAR-8 ovarian): > 10 µM

SMILES: CC(=O)Nn1c(=S)[nH]c2ccccc21
- TGI (PC-3 prostate): > 100 µM
- TGI (SK-MEL-28 melanoma): > 100 µM
- TGI (ACHN renal): > 100 µM
- TGI (SW-620 colon): > 100 µM
- TGI (HT29 colon): > 100 µM
- TGI (NCI-H226 lung): > 100 µM
- TGI (TK-10 renal): > 100 µM
- TGI (A549 NSCLC): > 100 µM
- TGI (MCF7 breast): > 100 µM
- TGI (HCT-15 colon): > 100 µM
- TGI (OVCAR-8 ovarian): > 100 µM

SMILES: C=CC1(CC/C(=C\[N+](=O)[O-])c2ccc(OC)c(OC)c2)OCC(C)(C)CO1
- TGI (PC-3 prostate): 57 µM
- TGI (SK-MEL-28 melanoma): 50.3 µM
- TGI (ACHN renal): 37.9 µM
- TGI (SW-620 colon): > 100 µM
- TGI (HT29 colon): 97.8 µM
- TGI (NCI-H226 lung): 56 µM
- TGI (TK-10 renal): 34.6 µM
- TGI (A549 NSCLC): > 100 µM
- TGI (MCF7 breast): > 100 µM
- TGI (HCT-15 colon): 38.6 µM
- TGI (OVCAR-8 ovarian): 36.9 µM

SMILES: O=C(/C=C/c1ccc2c(c1)OCO2)c1ccc(O)cc1
- TGI (PC-3 prostate): 29.4 µM
- TGI (SK-MEL-28 melanoma): 41.1 µM
- TGI (ACHN renal): 59.4 µM
- TGI (SW-620 colon): 26.3 µM
- TGI (HT29 colon): 29.8 µM
- TGI (NCI-H226 lung): 37.9 µM
- TGI (TK-10 renal): 33.1 µM
- TGI (A549 NSCLC): 50.7 µM
- TGI (MCF7 breast): 23.1 µM
- TGI (HCT-15 colon): 27.5 µM
- TGI (OVCAR-8 ovarian): 3.11 µM

SMILES: Cc1cc(C)nc(NS(=O)(=O)c2ccc(NC(=O)c3ccc4nc5ccccc5c(Nc5ccc(S(N)(=O)=O)cc5)c4c3)cc2)n1
- TGI (PC-3 prostate): > 100 µM
- TGI (SK-MEL-28 melanoma): > 100 µM
- TGI (ACHN renal): > 100 µM
- TGI (SW-620 colon): > 100 µM
- TGI (HT29 colon): > 100 µM
- TGI (NCI-H226 lung): > 100 µM
- TGI (TK-10 renal): > 100 µM
- TGI (A549 NSCLC): > 100 µM
- TGI (MCF7 breast): > 100 µM
- TGI (HCT-15 colon): > 100 µM
- TGI (OVCAR-8 ovarian): > 100 µM

From PubChem BioAssay (NCI)
